According to article PMC3466212, “Novel AChE Inhibitors for Sustainable Insecticide Resistance Management” (PLoS ONE, 2012):
Like-named read-outs stand apart in the source and are kept apart here.

What was measured:
[1] = test system: C. pipiens Ducos strain larvae; experiment: Larval bioassay, Ducos strain (ace-1 duplication); type: in vivo, Culex pipiens; conditions: C. pipiens OP-resistant ace-1 D (duplication) larvae
Text: (§1) Three C. pipiens strains were used: the susceptible reference Slab strain, homozygous for ace-1 ^S [39], the resistant reference SR strain, carrying the genetical background of Slab but homozygous for the G119S mutation, allele ace-1 ^R [21] and the Ducos strain, carrying the genetical background of Slab but homozygous for an ace-1 duplication, with one ace-1^S and ace-1^R copy in tandem. Culex pipiens heterozygous larvae (Slab×SR) were obtained by crossing Slab males and SR females. Two A. gambiae reference strains (S molecular form) were used: the susceptible strain Kisumu, homozygous for ace-1 ^S, collected in Kenya in 1953 and maintained since then under laboratory conditions and the resistant Acerkis strain, carrying the genetical background of Kisumu but homozygous for an ace-1^R allele from a population collected in Bobo-Dioulasso, Burkina Faso [41].
(§2) Insecticidal activity was determined by performing bioassays on fourth-instar larvae as described in [42]. Each compound was dissolved in ethanol. Propoxur (CX) and chlorpyrifos (OP) were used as references. For each compound, we first tested mortality after a 24-hour exposure at 300 µM. […] Mortality data were analyzed by the log-probit program. This program takes into account natural mortality and provides lethal doses (LD) and slopes for each mortality line; it also computes resistance ratios (RR) for each LD, with 95% confidence intervals.

[2] = test system: C. pipiens Slab strain larvae; experiment: Larval bioassay, Slab strain (OP-susceptible); conditions: for LD50 Slab: C. pipiens OP-susceptible ace-1 S/S larvae, four to five replicates; for Mortality at 300 µM, Slab: fourth-instar larvae, 24 hours exposure
Text: as §1, §2

[3] = test system: C. pipiens SR strain larvae; experiment: Larval bioassay, SR strain (OP-resistant); conditions: for LD50 SR: C. pipiens OP-resistant ace-1 R/R larvae; for Mortality at 300 µM, SR: fourth-instar larvae, 24 hours exposure
Text: Three C. pipiens strains were used: the susceptible reference Slab strain, homozygous for ace-1 ^S [39], the resistant reference SR strain, carrying the genetical background of Slab but homozygous for the G119S mutation, allele ace-1 ^R [21] and the Ducos strain, carrying the genetical background of Slab but homozygous for an ace-1 duplication, with one ace-1^S and ace-1^R copy in tandem. Culex pipiens heterozygous larvae (Slab×SR) were obtained by crossing Slab males and SR females.
Insecticidal activity was determined by performing bioassays on fourth-instar larvae as described in [42]. Each compound was dissolved in ethanol. Propoxur (CX) and chlorpyrifos (OP) were used as references. For each compound, we first tested mortality after a 24-hour exposure at 300 µM. […] Mortality data were analyzed by the log-probit program.

[4] = test system: A. gambiae Kisumu strain larvae; experiment: Larval bioassay, Kisumu strain (OP-susceptible); type: in vivo, Anopheles gambiae; conditions: A. gambiae OP-susceptible ace-1 S/S larvae
Text: as §1, §2

[5] = test system: A. gambiae Acerkis strain larvae; experiment: Larval bioassay, Acerkis strain (OP-resistant); type: in vivo, Anopheles gambiae; conditions: A. gambiae OP-resistant ace-1 R/R larvae
Text: as §1, §2

[6] = test system: C. pipiens F1 (SR×Slab) heterozygous larvae; experiment: Larval bioassay, heterozygous F1 (SR×Slab); type: in vivo, Culex pipiens; conditions: C. pipiens heterozygous ace-1 R/ace-1 S larvae
Text: as §1, §2

WT AChE1 [7] = target: T1, WT AChE1 (Culex pipiens, UniProt Q86GC8); conditions: read-out: Kic WT; dissociation constant of enzyme-inhibitor complex; five independent replicates
Method: (§3) To identify inhibitors of G119S AChE1, we screened a 3,000-compound chemical library using an assay adapted to a microplate format, [26]. […] For simplification, these compounds will be termed from now as PTF (PyrimidineTrione Furan-substituted) and were classified depending on the substituted positions (Table S1).
(§4) WT and G119S recombinant AChE1s were incubated with 0.25 mM, 0.5 mM or 1 mM inhibitor. Residual activity of G119S (A and C) and WT (B and D) AChE1 was measured in the presence of various concentrations of PTF-20 and substrates. Enzymatic activity was analyzed using the graphical method developed by Dixon, representing reciprocal rates (1/v) (A and B) or reciprocal rates multiplied by substrate concentrations ([S]/v) (C and D) as a function of inhibitor concentration. (PDF) Click here for additional data file.
(§5) Table S3. Dissociation constants (Kic) of enzyme-inhibitor complexes.
(§6) a numbers refer to Table S1
(§7) b data were measured from five independent replicates.
(§8) c competitive inhibitor reference

WT AChE1 [8] = target: T1, WT AChE1; experiment: AChE assay (Ellman), dose-response on recombinant WT AChE1; type: biochemical; design: made in house; host or cells: Drosophila S2 cells
Method: (§9) Production of C. pipiens WT and mutated AChE1s in Drosophila S2 cells was already described. The chemical library (ChemBridge, 3,000 compounds) screening was performed in duplicate on G119S recombinant AChE1. Chemicals were made soluble in ethanol or dimethylsulphoxide (DMSO), and then diluted at 300 µM in ethanol for storage. Compounds (30 µM final concentration) were incubated for 15 min at room temperature with 100 µl of G119S recombinant AChE1 then 100 µl of substrate (acetylthiocholine, 1.6 mM, Sigma-Aldrich) was added and the residual activity was quantified by measuring the optical density at 412 nm, as described by Ellman et al.. PTF analogs were analyzed in dose-response experiments (10-fold serial dilutions from 3 mM to 30 nM), using recombinant WT and G119S AChE1 or mosquito head extracts (heads cut from frozen mosquitoes, homogenized in 400 µl PB containing 1% Triton X-100 and cleared by centrifugation at 9,000×g for 3 min). Depending on compound availability, two to five replicates were performed with distinct batches of enzyme. […] IC50 was estimated by nonlinear least square regression. IC50 was also measured on AChE1 from susceptible and resistant mosquito larvae extracts.

F331W AChE1 = target: T2, F331W AChE1 (Culex pipiens, UniProt Q86GC8, F457W); type: biochemical; conditions: F331W OP-insensitive AChE1
T2 construct: made in house; host or cells: Drosophila S2 cells
Method: as §9, §6
(§10) b IC50 values were determined from regression analysis of log-concentrations versus

F290V AChE1 = target: T3, F290V AChE1 (Culex pipiens, UniProt Q86GC8, F416V); type: biochemical; conditions: F290V OP-insensitive AChE1
T3 construct: made in house; host or cells: Drosophila S2 cells
Method: as §9, §6, §10

G119S AChE1 [9] = target: T4, G119S AChE1 (Culex pipiens, UniProt Q86GC8, G247S); experiment: biochemical; type: biochemical
T4 construct: made in house; host or cells: Drosophila S2 cells
Method: as §9, with “Compounds (30 µM final concentration) were incubated for 15 min at room temperature with 100 µl of G119S recombinant AChE1 then 100 µl of substrate (acetylthiocholine, 1.6 mM, Sigma-Aldrich) was added and the residual activity was quantified by measuring the optical density at 412 nm, as described by Ellman et al..” left out

G119S AChE1 [10] = target: T4, G119S AChE1; type: biochemical; conditions: dissociation constant of enzyme-inhibitor complex; five independent replicates; read-out: Kic G119S
Method: as §3
Reversibility was tested using a rapid dilution procedure. Residual activity of WT (white bars) and G119S (grey bars) AChE1 were measured after 15 min incubation in presence of inhibitors (striped bars) and are expressed as percentages of control activity. […] Assays were then diluted ten times and residual activity was measured (open bars). Means and standard errors for three independent experiments are shown. (PDF) Click here for additional data file.
as §4, §5, §6, §7, §8

[11] = recombinant wild-type C. pipiens AChE1, 15 min incubation, acetylthiocholine, read-out: IC50 WT
[12] = recombinant OP-insensitive G119S C. pipiens AChE1, 15 min incubation, acetylthiocholine, read-out: IC50 G119S

Row | SMILES | Mortality at 300 µM, Slab [2] | Mortality at 300 µM, SR [3] | IC50 (WT AChE1 [8]; [11]) | IC50 (G119S AChE1 [9]; [12]) | further results
1 | CCOP(=S)(OCC)Oc1nc(Cl)c(Cl)cc1Cl [Chlorpyrifos, reference compound] |  |  |  |  | LD50 Ducos [1]: 0.0022 µM; LD50 Slab [2]: 0.00019 µM; LD50 SR [3]: 0.021 µM; LD50 Kisumu [4]: 0.00095 µM; LD50 Acerkis [5]: 0.6 µM; LD50 F1 (SR×Slab) [6]: 0.0015 µM
2 | Cc1ccc(C=C2C(=O)NC(=O)N(c3ccccc3)C2=O)o1 [PTF-3] | 43% | 78% | 29.4 µM | 6.2 µM | LD50 Ducos [1]: 162.1 µM; LD50 Slab [2]: 310.0 µM; LD50 SR [3]: 143.0 µM; Ki (WT AChE1 [7]): 127 ± 2.8 µM; IC50 (F331W AChE1): 17.8 µM; IC50 (F290V AChE1): 12.4 µM; LD50 Kisumu [4]: 109.7 µM; LD50 Acerkis [5]: 86.6 µM; LD50 F1 (SR×Slab) [6]: 151.3 µM; Ki (G119S AChE1 [10]): 21.8 ± 1.9 µM
3 | Cc1ccc(C=C2C(=O)NC(=O)N(c3ccc(Cl)cc3)C2=O)o1 [PTF-20] | 43% | 94% | 330 µM | 27.5 µM | LD50 Slab [2]: 762.0 µM; LD50 SR [3]: 194.0 µM; Ki (WT AChE1 [7]): 56.1 ± 1.8 µM; IC50 (F331W AChE1): 8.3 µM; IC50 (F290V AChE1): 14.5 µM; Ki (G119S AChE1 [10]): 5.6 ± 0.1 µM
4 | Cc1ccc(C=C2C(=O)N(C)C(=O)N(C)C2=O)o1 [PTF-39] | 29% | 81% | 74.3 µM | 7.6 µM | LD50 Ducos [1]: 201.9 µM; LD50 Slab [2]: 576.0 µM; LD50 SR [3]: 200.0 µM; Ki (WT AChE1 [7]): 130 ± 9.2 µM; IC50 (F331W AChE1): 8.7 µM; IC50 (F290V AChE1): 13.9 µM; LD50 F1 (SR×Slab) [6]: 110.0 µM; Ki (G119S AChE1 [10]): 41.9 ± 2.3 µM
5 | O=C1NC(=O)N(c2ccccc2)C(=O)C1=Cc1ccc(-c2ccccc2C(=O)O)o1 [PTF-59] | 0% | 0% | 45.7 µM | 18.5 µM | 
6 | O=C1NC(=O)N(c2ccccc2)C(=O)C1=Cc1ccc(Sc2ccccc2)o1 [PTF-60] | 50% | 50% | 7.7 µM | 1.1 µM | 
7 | O=C1NC(=O)N(c2ccccc2)C(=O)C1=Cc1ccc(N2CCCCC2)o1 [PTF-61] | 0% | 0% | 124 µM | 1500 µM | 
8 | O=C1NC(=O)N(c2ccccc2)C(=O)C1=Cc1ccc(N2CCOCC2)o1 [PTF-62] | 0% | 0% | 197 µM | 345 µM | 
9 | O=C1NC(=S)N(c2ccccc2)C(=O)C1=Cc1ccco1 [PTF-63] | 0% | 0% | 151 µM | 98 µM | 
10 | N=C1NC(=O)C(=Cc2ccco2)C(=O)N1c1ccccc1 [PTF-64] | 0% | 0% | 56 µM | 49.5 µM | 
11 | CC(C)(C)N=C1NC(=O)C(=Cc2ccco2)C(=O)N1c1ccccc1 [PTF-65] | 0% | 0% | 37 µM | 22 µM | 
12 | C=CCN1C(=O)NC(=O)C(=Cc2ccc(C)s2)C1=O [PTF-66] | 63% | 100% | 91.6 µM | 51 µM | 
13 | O=C1NC(=O)N(c2ccccc2)C(=O)C1=Cc1cccs1 [PTF-67] | 0% | 0% | 9.1 µM | 11.2 µM | 
14 | Cc1ccc(C=C2C(=O)NC(=O)N(c3ccccc3)C2=O)s1 [PTF-68] | 89% | 95% | 4 µM | 5 µM | 
15 | O=C1NC(=O)N(c2ccccc2)C(=O)C1=Cc1ccc(-c2cccc(C(=O)O)c2)s1 [PTF-69] | 0% | 0% | 43.9 µM | 4.6 µM | 
16 | O=C1NC(=O)N(c2ccccc2)C(=O)C1=Cc1ccc(N2CCCCC2)s1 [PTF-70] | 0% | 0% | 18 µM | 6.2 µM | 
17 | O=C1NC(=O)N(c2ccccc2)C(=O)C1=Cc1ccc(N2CCOCC2)s1 [PTF-71] | 0% | 0% | 4500 µM | 2480 µM | 
18 | CNC(=O)Oc1ccccc1OC(C)C [Propoxur, reference compound] |  |  |  |  | LD50 Ducos [1]: 56.7 µM; LD50 Slab [2]: 1.6 µM; mortality at 300 µM ([2]; Culex pipiens, 24 h, read-out: Mortality at 300 µM, Slab): 100%; LD50 SR [3]: 2100 µM; mortality at 300 µM ([3]; Culex pipiens, 24 h, read-out: Mortality at 300 µM, SR): 0%; IC50 (WT AChE1 [8]): 0.3 µM; LD50 Kisumu [4]: 0.1 µM; LD50 Acerkis [5]: 689.6 µM; LD50 F1 (SR×Slab) [6]: 2.3 µM; IC50 (G119S AChE1 [9]): 26500 µM
